Data from publication PMC9465256, “Discovering monoacylglycerol lipase inhibitors by a combination of fluorogenic substrate assay and activity-based protein profiling” (Frontiers in Pharmacology, 2022).

Assays:
Type in all cases: biochemical
[1] = target: T1, human MAGL (Homo sapiens, UniProt Q99685); assay: MAGL activity assay (AA-HNA fluorogenic substrate); details: 100 µM, AA-HNA substrate assay, Supplementary Table 1; read-out: MAGL Inhibition (%)
T1 construct: expressed in transfected cells; host or cells: HEK293T (transient transfection; membrane fraction)
T1 sequence (Q99685 1-303): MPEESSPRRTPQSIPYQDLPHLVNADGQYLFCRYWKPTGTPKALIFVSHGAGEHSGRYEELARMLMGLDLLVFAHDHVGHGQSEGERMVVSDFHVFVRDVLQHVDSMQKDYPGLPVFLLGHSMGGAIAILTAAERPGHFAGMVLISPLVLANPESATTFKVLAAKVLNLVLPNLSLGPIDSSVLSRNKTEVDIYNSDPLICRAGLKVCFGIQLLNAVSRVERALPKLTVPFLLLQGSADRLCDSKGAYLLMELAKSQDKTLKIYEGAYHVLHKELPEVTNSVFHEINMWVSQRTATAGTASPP
Description: (§1) HEK293T cells were cultured at 37°C under 5% CO2 in a DMEM medium with stable glutamine and phenolred, containing 10% fetal bovine serum (FBS, Gibco), penicillin, and streptomycin. The cells were passaged every 2–3 days by resuspension in the medium at ∼90% confluence. The membranes used in this study were prepared from transiently transfected HEK293T cells. Briefly, 1 day prior to transfection, ∼10^7 cells were seeded in 15 cm plates, and then the cells were transfected by the addition of a mixture of polyethyleneimine and plasmid DNA (3:1, 60, and 20 µg) in 2 ml of medium (without serum). Of note, the empty pcDNA3.1 vector was used in the Mock-control. After 24 h, the medium was removed and the cells were refreshed with fresh medium. After 72 h, the cells were harvested by suspending in 20 ml of medium, and the supernatant was removed by centrifugation for 10 min at 1,000 rpm. The cell pellet was flash frozen in liquid nitrogen and stored at −80°C until use. Subsequently, the cell pellets were suspended in lysis buffer (30 mM Tirs, pH 7.5, 1 mM MgCl2, 25 U/ml Benzonase), which was homogenized by sonication (3 × 10 bursts) and incubated for 30 min on ice. The membrane fractions overexpressing MAGL/ABHD6/ABHD12 were separated by ultracentrifuge (100,000 g, 30 min, 4 C). The protein concentration was determined with a Qubit protein assay (Invitrogen). The protein samples were quickly frozen in liquid nitrogen and stored at −80 C until use.
The MAGL activity assay is based on the hydrolysis of 2-arachidonoylglycerol-based fluorogenic substrate by MAGL-overexpressing membrane preparations from transiently transfected HEK293T cells. In brief, the reactions were performed in HEPES buffer (40 mM HEPES, pH 7.5, 0.1 mg/ml BSA) in black, flat bottom 96-well plates. […] After the incubation of the inhibitor-protein complex for 30 min, 10 µl of the fluorogenic substrate (AA-HNA, 200 µM) was added and fluorescence was measured in 1 min intervals for 30 min on a plate reader (BioTek). […] All the measurements were performed in N = 2, n = 2 for inhibitors and N = 2, n = 4 for controls with Z′ value ≥0.6. The slope is determined in 5–15 min for all the experiments.

[2] = target: T2, human ABHD6 (Homo sapiens, UniProt Q9BV23); assay: ABHD6 activity assay (AA-HNA fluorogenic substrate); details: 100 µM, AA-HNA substrate assay, Supplementary Table 2; read-out: ABHD6 Inhibition (%)
T2 construct: expressed in transfected cells; host or cells: HEK293T (transient transfection; membrane fraction)
T2 sequence (Q9BV23 1-337): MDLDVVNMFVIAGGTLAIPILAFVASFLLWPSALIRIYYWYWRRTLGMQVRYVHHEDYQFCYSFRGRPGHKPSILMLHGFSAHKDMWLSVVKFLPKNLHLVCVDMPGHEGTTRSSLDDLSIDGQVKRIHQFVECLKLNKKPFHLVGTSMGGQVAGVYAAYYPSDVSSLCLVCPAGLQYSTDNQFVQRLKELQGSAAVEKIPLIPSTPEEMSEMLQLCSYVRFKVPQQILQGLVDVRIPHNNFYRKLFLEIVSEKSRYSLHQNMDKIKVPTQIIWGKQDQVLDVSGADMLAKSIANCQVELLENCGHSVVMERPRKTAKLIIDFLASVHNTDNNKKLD
Description: as §1
The MAGL activity assay is based on the hydrolysis of 2-arachidonoylglycerol-based fluorogenic substrate by MAGL-overexpressing membrane preparations from transiently transfected HEK293T cells. In brief, the reactions were performed in HEPES buffer (40 mM HEPES, pH 7.5, 0.1 mg/ml BSA) in black, flat bottom 96-well plates. The final protein concentration of membrane fractions from overexpressing human MAGL HEK293T cells was 12.5 μg/ml 5 µl of inhibitors were added from×40 concentrated DMSO stocks in the 96-well plate containing 145 µl assay buffer, followed by the addition of 40 µl of the protein (12.5 μg/ml). After the incubation of the inhibitor-protein complex for 30 min, 10 µl of the fluorogenic substrate (AA-HNA, 200 µM) was added and fluorescence was measured in 1 min intervals for 30 min on a plate reader (BioTek). Final assay concentrations: 12.5 μg/ml MAGL, […], and […] in the total volume of 200 µl. All the measurements were performed in N = 2, n = 2 for inhibitors and N = 2, n = 4 for controls with Z′ value ≥0.6. The slope is determined in 5–15 min for all the experiments.
The ABHD6 activity assay is based on the same principle as the MAGL activity assay described earlier, but with human ABHD6 overexpressing membrane preparations at a final protein concentration of 50 μg/ml and 200 µM AA-HNA. Other conditions are the same as those of the MAGL activity assay.

[3] = target: T3, human ABHD12 (Homo sapiens, UniProt Q8N2K0); assay: ABHD12 activity by competitive ABPP with FP-TAMRA; details: 100 µM compound; competitive ABPP with probe FP-TAMRA (250 nM); read-out: ABHD12 Inhibition (%)
T3 construct: expressed in transfected cells; host or cells: HEK293T (transient transfection; membrane fraction)
T3 sequence (Q8N2K0 1-398): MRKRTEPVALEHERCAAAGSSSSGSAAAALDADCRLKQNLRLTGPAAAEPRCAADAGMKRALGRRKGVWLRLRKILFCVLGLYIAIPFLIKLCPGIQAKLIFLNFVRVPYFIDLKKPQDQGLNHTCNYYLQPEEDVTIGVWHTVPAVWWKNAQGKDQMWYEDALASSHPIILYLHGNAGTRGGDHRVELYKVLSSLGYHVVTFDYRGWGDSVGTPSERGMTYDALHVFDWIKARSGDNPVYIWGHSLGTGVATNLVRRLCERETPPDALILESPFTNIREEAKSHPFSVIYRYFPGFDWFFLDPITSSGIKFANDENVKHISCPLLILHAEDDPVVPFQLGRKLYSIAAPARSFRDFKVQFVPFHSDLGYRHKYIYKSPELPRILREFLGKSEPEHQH
Description: as §1
The ABHD12 activity assay is based on competitive activity-based protein profiling (ABPP) with human ABHD12 overexpressing membrane fractions. Briefly, the membrane proteome (1 mg/ml, 20 µl) was incubated at room temperature with 0.5 µl DMSO (vehicle) or inhibitor for 30 min. Subsequently, the samples were treated with the activity-based probe FP-TAMRA (250 nM, final concentration) for 20 min. The reactions were then quenched by 10 µl sample buffer (×4) (final concentrations: 60 mM Tris, pH 6.8, 2% (w/v) SDS, 10% (v/v) glycerol, 5% (v/v) β-mercaptoethanol, 0.01% (v/v) bromophenol blue). The samples were directly loaded and resolved on SDS-PAGE gel (10% acrylamide), which were then scanned using a ChemiDoc MP system (Cy3 settings, BioRad).

Row | activity [1] [%] | activity [2] [%] | activity [3] [%] | SMILES | activity at 100 µM [1] [%] | activity at 100 µM [2] [%] | activity at 100 µM [3] [%]
1 | – | – | – | CC1(C)[C@@H](O)CC[C@]2(C)[C@H]3C(=O)C=C4[C@@H]5C[C@@](C)(C(=O)O)CC[C@]5(C)CC[C@@]4(C)[C@]3(C)CC[C@@H]12 [compound 30, Enoxolone] | 95.9 | 92 | 89.1
2 | – | – | – | COc1ccc(-c2coc3cc(O)ccc3c2=O)cc1 [compound 31, Formononetin] | 103 | 94.1 | 77.5
3 | – | – | – | CC1(C)[C@@H](O[C@H]2O[C@H](C(=O)O)[C@@H](O)[C@H](O)[C@H]2O[C@@H]2O[C@H](C(=O)O)[C@@H](O)[C@H](O)[C@H]2O)CC[C@]2(C)[C@H]3C(=O)C=C4[C@@H]5C[C@@](C)(C(=O)O)CC[C@]5(C)CC[C@@]4(C)[C@]3(C)CC[C@@H]12 [compound 33, Glycyrrhizin] | 99.5 | 92.9 | 69.3
4 | – | – | – | CN(C)Cc1c[nH]c2ccccc12 [compound 35, Gramine] | 97.3 | 99 | 82.7
5 | – | – | – | COc1ccc([C@@H]2CC(=O)c3c(O)cc(O)cc3O2)cc1O [compound 37, Hesperetin] | 90.9 | 104 | 83.6
6 | – | – | – | C=CCc1ccc(O)c(-c2ccc(O)c(CC=C)c2)c1 [compound 39, Honokiol] | 111 | 83.9 | 104
7 | 97 | 95.4 | 70.8 | C[C@H](CCC(=O)O)[C@H]1CC[C@H]2[C@@H]3C[C@H](O)[C@@H]4C[C@H](O)CC[C@]4(C)[C@H]3CC[C@]12C [compound 40, Hyodeoxycholic] | – | – | –
8 | – | – | – | COc1ccc(-c2oc3c(CC=C(C)C)c(O[C@@H]4O[C@H](CO)[C@@H](O)[C@H](O)[C@H]4O)cc(O)c3c(=O)c2O[C@@H]2O[C@@H](C)[C@H](O)[C@@H](O)[C@H]2O)cc1 [compound 41, Icariin] | 84 | 84.6 | 66
9 | 70.6 | 101 | 80.9 | OCc1c[nH]c2ccccc12 [compound 42, Ndole-3-carbinol] | – | – | –
10 | – | – | – | O=c1c(O)c(-c2ccc(O)cc2)oc2cc(O)cc(O)c12 [compound 43, Kaempferol] | 32.2 | 84.3 | 30.2
11 | – | – | – | c1coc(CNc2ncnc3[nH]cnc23)c1 [compound 44, Kinetin] | 90.5 | 98.5 | 78.2
12 | 81.1 | 98.8 | 80.6 | C[C@@H]1O[C@@H](O)[C@H](O)[C@H](O)[C@H]1O [compound 45, L-(+)-Rhamnose Monohydrate] | – | – | –
13 | – | – | – | CC1(C)O[C@H]2CC(=O)OC[C@]23[C@H]2CC[C@@]4(C)[C@H](c5ccoc5)OC(=O)[C@H]5O[C@]54[C@]2(C)C(=O)C[C@@H]13 [compound 46, Limonin] | 90.6 | 103 | 83.1
14 | – | – | – | C=CCc1ccc(O)c(-c2cc(CC=C)ccc2O)c1 [compound 48, Magnolol] | 72.2 | 101 | 107
15 | 49.4 | 99.4 | 31.6 | O=c1c(O)c(-c2ccc(O)cc2O)oc2cc(O)cc(O)c12 [compound 51, Morin hydrate] | – | – | –
16 | – | – | – | O=c1c(O)c(-c2cc(O)c(O)c(O)c2)oc2cc(O)cc(O)c12 [compound 52, Myricetin] | 41.2 | 100 | 63.9
17 | – | – | – | CCn1cc(C(=O)O)c(=O)c2ccc(C)nc21 [compound 54, Nalidixic acid] | 143 | 100 | 82.2
18 | – | – | – | C[C@@H]1O[C@@H](O[C@H]2[C@H](Oc3cc(O)c4c(c3)O[C@H](c3ccc(O)cc3)CC4=O)O[C@H](CO)[C@@H](O)[C@@H]2O)[C@H](O)[C@H](O)[C@H]1O [compound 55, Naringin] | 104 | 104 | 81.4
19 | – | – | – | COc1ccc(CCC(=O)c2c(O)cc(O[C@@H]3O[C@H](CO)[C@@H](O)[C@H](O)[C@H]3O[C@@H]3O[C@@H](C)[C@H](O)[C@@H](O)[C@H]3O)cc2O)cc1O [compound 56, Neohesperidin dihydrochalcone] | 87.4 | 105 | 83.1

Row | SMILES | activity [1] [%] | activity [2] [%] | activity [3] [%] | activity at 100 µM [1] [%] | activity at 100 µM [2] [%] | activity at 100 µM [3] [%]
20 | COc1cc(/C=C/C(=O)O)ccc1O [compound 32, Ferulic Acid] | 104 | 92.4 | 80.8 | – | – | –
21 | COc1ccc([C@@H]2CC(=O)c3c(O)cc(O[C@@H]4O[C@H](CO[C@@H]5O[C@@H](C)[C@H](O)[C@@H](O)[C@H]5O)[C@@H](O)[C@H](O)[C@H]4O)cc3O2)cc1O [compound 38, Hesperidin] | 91.4 | 94.3 | 76.6 | – | – | –
22 | O=C1CCC[C@@H]2[C@H]3CCCN4CCC[C@@H](CN12)[C@@H]34 [compound 49, (+)-Matrine] | 85.4 | 98.3 | 84.4 | – | – | –
